Experimental data taken from patent publication US12622893B2, “Alpha2 adrenergic agonist codrugs conjugated with muscarinic agonist drugs” (ADS THERAPEUTICS LLC, priority 2021, dated 2026).

Assays:
[1] = In vitro metabolic stability in rabbit cornea homogenates; assay type: in vitro ADME, Dutch Belted rabbits; settings: 1 μM test compound, 0.3 mg/mL corneal protein homogenate, pH=6.0, 37° C.; for Rate of formation Metabolite 1: metabolite 1 = pilocarpine; for Rate of formation Metabolite 2: metabolite 2 as named under each value (Dexmedetomidine metabolite, brimonidine metabolite or brimonidine)
Procedure: Dutch Belted rabbits will be euthanized with an overdose of sodium pentobarbital. The corneas will be collected and homogenized in ice-cold potassium chloride solution (pH=7.4). The homogenate will be centrifuged at 755×g for 30 min at 4° C. and aliquots of the supernatant will be stored at or below −70° C. until metabolism experiments will be conducted. Prior to storing the homogenates, an aliquot will be removed for the determination of protein concentrations by calculating the […] using a spectrophotometer. All metabolic stability experiments will be performed in triplicate in 96-well plate format. The final incubation mixture will contain 1 μM test compound, 0.3 mg/mL corneal protein homogenate in a final volume of 0.5 mL 0.1 M potassium phosphate buffer (pH=6.0). The final percentage of solvent in the incubation will be less than 1.0% to prevent inhibition of enzymatic activity. Following a pre-incubation at 37° C., test article will be added to initiate the reaction. At designated time points (typically less than 60 minutes to capture the linear range of metabolite formation), 0.05 mL aliquots will be removed from the incubation mixtures using a clean pipet tip and immediately placed in organic solvent to stop any esterase activity. The hydrolysis to the metabolites will be confirmed to be due to esterase activity and not chemical stability. The samples will be analyzed by liquid chromatography with mass spectrometry (LC-MS/MS) detection to determine the metabolite concentrations resulting from the metabolism of the hybrid compounds. Internal standards were used to compensate for variability from sample processing, chromatographic elution, mass spectrometer response and ion suppression by matrix components.

rabbit pupil [2] = test: In vivo pharmacology study of measuring pupil size (Example 27); design: species or system Dutch belted rabbits; settings: FIG. 2; 0.5% and 2%
Procedure: (§1) Three (3) female Dutch belted rabbits were randomly assigned to each group by Provantis or Excel based on body weight. Each animal was dosed 40 μL of testing article (see Table 4 below) to both eyes. The pupil sizes of both eyes were measured at baseline (30 minutes before dosing), 0.5 h, 1 h, 2 h, 3 h, 4 h, 6 h, 8 h after dosing. The pupil size measurement data were analyzed for efficacy of pupil constriction. CBT compounds tested are co-drugs of pilocarpine-alpha adrenergic agonists as described above. The vehicle used to dissolve CBT compounds is the same as the vehicle used in the negative control in group 1. Positive control 1 is 1.25% Pilocarpine HCl in an aqueous buffer. Positive control 2 is 3.0% Carbachol and 0.2% Brimonidine in an aqueous buffer. This control can result in a large pupil constrictive effect.

rabbit pupil [3] = test: In vivo pharmacology study of measuring pupil size (Example 28); design: species or system Dutch belted rabbits; settings: FIG. 3; for efficacy of pupil constriction compared with positive control 1: positive control 1 is 1.25% Pilocarpine HCl; for potency of pupil constriction compared with other co-drugs: all co-drugs at 1%
Procedure: as §1, with “Table 5” for “Table 4”, “8 h, 24” for “8”, “constriction. Co-drug” for “constriction. CBT”, “compounds” for “compounds tested”, “dissolve Co-drug” for “dissolve CBT”

[4] = In vivo ocular pharmacokinetics following a single topical ophthalmic administration; design: species or system New Zealand White Rabbits; settings: 0.5% (w/v) solution; for Conc. of Co-drug in Cornea Tissue: both eyes
Procedure: Rabbits will be dosed once by ocular instillation to both eyes with each compound formulated in a 0.5% (w/v) solution. At 0.25, 0.5, 1, 2, 6 and 10 hours post dose, cornea, aqueous humor, conjunctiva and eyelid margin will be collected and stored at approximately −70° C. until bioanalysis. Ocular tissue samples will be analyzed by liquid chromatography with mass spectrometry detection to determine the parent and metabolite (pilocarpine and brimonidine) concentrations resulting from the metabolism of ester linked co-drugs. Internal standards will be used to compensate for variability from sample processing, chromatographic elution, mass spectrometer response and ion suppression by matrix components. […]

[5] = 0.25 hr after dosing the co-drug
[6] = 0.5 hr after dosing the co-drug

With CC[C@H](C(=O)OCc1cccc([C@H](C)c2c[nH]cn2)c1C)[C@H](CO)Cc1cncn1C [Compound-1, 3-((S)-1-(1H-imidazol-4-yl)ethyl)-2-methylbenzyl (2S,3R)-2-ethyl-4-hydroxy-3-((1-methyl-1H-imidazol-5-yl)methyl)butanoate] the “Rate of formation Metabolite 1” value [1] was 5.56 ± 0.43 nM/min/mg and the “Rate of formation Metabolite 2” value [1] was 3.52 ± 0.23 nM/min/mg.

With CC[C@H](C(=O)OCc1cccc([C@H](C)c2c[nH]cn2)c1C)[C@H](COC(C)=O)Cc1cncn1C [Compound-2, 3-((S)-1-(1H-imidazol-4-yl)ethyl)-2-methylbenzyl (2S,3R)-4-acetoxy-2-ethyl-3-((1-methyl-1H-imidazol-5-yl)methyl)butanoate] the “Rate of formation Metabolite 1” value [1] was 4.34 ± 0.11 nM/min/mg, the “Rate of formation Metabolite 2” value [1] was 2.87 ± 0.78 nM/min/mg and the “dose relation of pupil constriction” value (rabbit pupil [2]) was “dose-related effects”.

In the case of CC[C@H](C(=O)OCOC(=O)N1CCN=C1Nc1ccc2[nH]cnc2c1Br)[C@H](COC(C)=O)Cc1cncn1C [Compound-4, (((2S,3R)-4-acetoxy-2-ethyl-3-((1-methyl-1H-imidazol-5-yl)methyl)butanoyl)oxy)methyl 2-((4-bromo-1H-benzo[d]imidazol-5-yl)amino)-4,5-dihydro-1H-imidazole-1-carboxylate], the “Rate of formation Metabolite 1” value [1] is reported as 5.87 ± 0.97 nM/min/mg and the “Rate of formation Metabolite 2” value [1] is reported as 6.34 ± 0.07 nM/min/mg.

In the case of CC[C@H](C(=O)N1CCN/C1=N/c1ccc2nccnc2c1Br)[C@H](COC(C)=O)Cc1cncn1C [Compound-16, (2R,3S)-3-((Z)-2-((5-bromoquinoxalin-6-yl)imino)imidazolidine-1-carbonyl)-2-((1-methyl-1H-imidazol-5-yl)methyl)pentyl acetate], the “efficacy of pupil constriction compared with positive control 1” value (rabbit pupil [3]) is reported as “efficacies similar to that of positive control 1” and the “potency of pupil constriction compared with other co-drugs” value (rabbit pupil [3]) is reported as “better potency than Compound-15 and Compound-19”.

For CC[C@H](C(=O)N1CCN/C1=N/c1ccc2nccnc2c1Br)[C@H](COC(=O)C(C)(C)C)Cc1cncn1C [Compound-20, (2R,3S)-3-((Z)-2-((5-bromoquinoxalin-6-yl)imino)imidazolidine-1-carbonyl)-2-((1-methyl-1H-imidazol-5-yl)methyl)pentyl pivalate], the “efficacy of pupil constriction compared with positive control 1” value (rabbit pupil [3]) was “efficacies similar to that of positive control 1” and the “potency of pupil constriction compared with other co-drugs” value (rabbit pupil [3]) was “better potency than Compound-15 and Compound-19”.

In the case of CC[C@H](C(=O)OCOC(=O)N1CCN=C1Nc1ccc2[nH]cnc2c1Br)[C@H](CO)Cc1cncn1C [compound 3, (((2S,3R)-2-ethyl-4-hydroxy-3-((1-methyl-1H-imidazol-5-yl)methyl)butanoyl)oxy)methyl 2-((4-bromo-1H-benzo[d]imidazol-5-yl)amino)-4,5-dihydro-1H-imidazole-1-carboxylate], the “Rate of formation Metabolite 1” value [1] is reported as 8.86 ± 0.13 nM/min/mg and the “Rate of formation Metabolite 2” value [1] is reported as 1.23 ± 0.03 nM/min/mg.

For CC[C@H](C(=O)OCOC(=O)N1CCN=C1Nc1ccc2nccnc2c1Br)[C@H](CO)Cc1cncn1C [compound 5, (((2S,3R)-2-ethyl-4-hydroxy-3-((1-methyl-1H-imidazol-5-yl)methyl)butanoyl)oxy)methyl 2-((5-bromoquinoxalin-6-yl)amino)-4,5-dihydro-1H-imidazole-1-carboxylate], the “Rate of formation Metabolite 1” value [1] was 2.13 ± 0.24 nM/min/mg and the “Rate of formation Metabolite 2” value [1] was 4.98 ± 0.34 nM/min/mg.

In the case of CC[C@H](C(=O)OCOC(=O)N1CCN=C1Nc1ccc2nccnc2c1Br)[C@H](COC(C)=O)Cc1cncn1C [compound 6, (((2S,3R)-4-acetoxy-2-ethyl-3-((1-methyl-1H-imidazol-5-yl)methyl)butanoyl)oxy)methyl 2-((5-bromoquinoxalin-6-yl)amino)-4,5-dihydro-1H-imidazole-1-carboxylate], the “Conc. of Brimonidine (Metabolite 2) in Cornea Tissue” value (“Conc. of Brimonidine” for short) [4, 5] is reported as 24 ± 12 ng/mL, the “Conc. of Pilocarpine (Metabolite 1) in Cornea Tissue” value (from here on “Conc. of Pilocarpine”) [4, 5] is reported as 39 ± 37 ng/mL and the “Conc. of Co-drug in Cornea Tissue” value ([4]; 0.25 hr post dose) is reported as 7238 ± 345 ng/mL. The “Conc. of Brimonidine” value [4, 6] was 78 ± 54 ng/mL, the “Conc. of Pilocarpine” value [4, 6] was 139 ± 78 ng/mL and the “Conc. of Co-drug in Cornea Tissue” value ([4]; 0.5 hr post dose) was 987 ± 245 ng/mL. The “Conc. of Brimonidine” value ([4]; 1 hr after dosing the co-drug) was 98 ± 23 ng/mL, the “Conc. of Pilocarpine” value ([4]; 1 hr after dosing the co-drug) was 379 ± 120 ng/mL and the “Conc. of Co-drug in Cornea Tissue” value ([4]; 1 hr post dose) was 234 ± 33 ng/mL. The “Conc. of Brimonidine” value ([4]; 2 hr after dosing the co-drug) was 139 ± 37 ng/mL, the “Conc. of Pilocarpine” value ([4]; 2 hr after dosing the co-drug) was 539 ± 30 ng/mL and the “Conc. of Co-drug in Cornea Tissue” value ([4]; 2 hr post dose) was 95 ± 19 ng/mL. For the same compound, the “Conc. of Brimonidine” value ([4]; 6 hr after dosing the co-drug) was 339 ± 134 ng/mL, the “Conc. of Pilocarpine” value ([4]; 6 hr after dosing the co-drug) was 754 ± 127 ng/mL and the “Conc. of Co-drug in Cornea Tissue” value ([4]; 6 hr post dose) was 39 ± 37 ng/mL. For the same compound, the “Conc. of Brimonidine” value ([4]; 10 hr after dosing the co-drug) was 539 ± 97 ng/mL, the “Conc. of Pilocarpine” value ([4]; 10 hr after dosing the co-drug) was 867 ± 37 ng/mL and the “Conc. of Co-drug in Cornea Tissue” value ([4]; 10 hr post dose) was 12 ± 3 ng/mL. For the same compound, the “Rate of formation Metabolite 1” value [1] was 7.43 ± 0.27 nM/min/mg and the “Rate of formation Metabolite 2” value [1] was 1.98 ± 0.09 nM/min/mg.
